Data published in US20190315823A1, “SMALL CATIONIC ANTI-BIOFILM AND IDR PEPTIDES” (priority 2013, published 2019).
Ends that are not written are not given here.

Experiments:
[1] = system: methicillin resistant Staphylococcus aureus (MRSA) biofilm; conditions: approximate peptide concentration […] (around 3 μg/ml); compared to untreated samples
Outline: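 Peptide was present from inoculation onward, with bacteria seeded at 1/100 from overnight cultures into BM2 biofilm medium or Luria Broth. Crystal violet staining of surface-attached cells (A595) quantified biofilm reduction at 22–46 h. K. pneumoniae was additionally screened in a real-time Bioflux flow device for some peptides.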

[2] = system: human peripheral blood mononuclear cells (MCP-1); experiment: SPOT-synthesized derivative screen: production of chemokine MCP-1; type: cell-based; conditions: Table 12, No LPS, human PBMC, peptide at ~18-24 μM; for MCP1: background subtracted 139 (HH2 derivatives), 170 (1018 derivatives), 242 (1002 and hybrid peptides) pg/ml
Outline: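 MCP-1 was quantified by capture ELISA in cleared culture supernatants of treated human peripheral blood mononuclear cells. Cells came from heparinized volunteer blood via Ficoll gradient and were seeded at 0.75 to 1×10^6 cells/ml (37 °C, 5% CO2).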

[3] = system: LPS-stimulated human peripheral blood mononuclear cells (IL1-β); type: cell-based; conditions: Table 12, cells stimulated with 10 ng/ml LPS; for IL1β Production: LPS alone 1313 (HH2 derivatives), 1927 (1018 derivatives), 2455 (1002 and hybrid peptides) pg/ml

Row | Substance | % Biofilm inhibition [1] | Fold increase in MCP1 cf. untreated cells [2] | MCP1 [2] | Fold change in IL1β relative to no peptide LPS stimulated cells [3] | IL1β Production [3]
1 | 1002-K11: single substituted 1002 peptide (VQRWLIVWRIKK-NH2) [Peptide 1002-K11] | 74% | 3.2 | 543.3 pg/mL | 0.05 | 127 pg/mL
2 | HH2-W4: single substituted HH2 peptide (VQLWIRVAVIRA-NH2) | 58% | 24 | 3945 pg/mL | 0.30 | 399 pg/mL
3 | 1018-K2: single substituted 1018 peptide (VKLIVAVRIWRR-NH2) [Peptide 1018-K2] | 68% | 1.5 | 92 pg/mL | 0.10 | 127 pg/mL
4 | HH2-V11: single substituted HH2 peptide (VQLRIRVAVIVA-NH2) | 51% | 5.6 | 788 pg/mL | 1.15 | 1515 pg/mL
5 | 1018-W3: single substituted 1018 peptide (VRWIVAVRIWRR-NH2) [Peptide 1018-W3] | 66% | 6.6 | 953 pg/mL | 0.10 | 127 pg/mL
6 | 1002-L1: single substituted 1002 peptide (LQRWLIVWRIRK-NH2) [Peptide 1002-L1] | 69% | 13.3 | 2988.6 pg/mL | 0.05 | 127 pg/mL
7 | 1018-W5: single substituted 1018 peptide (VRLIWAVRIWRR-NH2) [Peptide 1018-W5] | 55% | 0.8 | -28 pg/mL | 0.10 | 127 pg/mL
8 | 1018-V4: single substituted 1018 peptide (VRLVVAVRIWRR-NH2) [Peptide 1018-V4] | 75% | 1.2 | 29 pg/mL | 0.11 | 144 pg/mL
9 | 1002-A6: single substituted 1002 peptide (VQRWLAVWRIRK-NH2) [Peptide 1002-A6] | 28% | 3.0 | 485.3 pg/mL | 0.16 | 382 pg/mL
10 | 1018-K4: single substituted 1018 peptide (VRLKVAVRIWRR-NH2) [Peptide 1018-K4] | 41% | 1.2 | 40 pg/mL | 0.30 | 393 pg/mL
11 | HH2-Q12: single substituted HH2 peptide (VQLRIRVAVIRQ-NH2) | 72% | 13 | 2034 pg/mL | 0.73 | 965 pg/mL
